Assay [1] deals with HMLE-TWIST cells. Nature of the assay: E-cadherin (E-cad) level after chaetocin pulse. Particulars: 80 nM or 200 nM for 15 hours, then 1, 2, 4 days chaetocin-free. The format is cell-based, human.
Description: Levels of an epithelial marker, E-cadherin (E-cad) were assayed at 15H, 1 D, 2D, and 4D after chaetocin treatment and the fraction of E-cad positive cells was quantified.
To molecularly test whether chaetocin treatment converts mesenchymal cells into epithelial cells, HMLE-TWIST cells were treated with a pulse of chaetocin for 15 hours (15H), washed and then incubated in chaetocin-free media for 1 day (1D), 2 days (2D), and 4 days (4D). Levels of the ubiquitous epithelial marker E-cadherin (E-cad) was assayed using Western blots throughout the experiment.
Assay [2] deals with H3K9me3 in HMLE-TWIST cells. Nature of the assay: H3K9me3 chromatin immunoprecipitation and deep sequencing. The format is cell-based, human. The protocol: FIG. 11 is a meta-plot depicting the H3K9me3 peaks in HMLE-TWIST cells treated (right graph) with 0.3 μM of chaetocin for 15 hours versus untreated cells (left graph). […] The decrease in red and yellow color and an increase in blue color is consistent with chaetocin-induced inhibition of Suv39H1 and Suv39H2 activities resulting in a decrease in H3K9me3 throughout the chaetocin-treated HMLE-TWIST cells.
Chaetocin is an inhibitor of Suv39H1 and Suv39H2 enzymes, whose catalytic activities trimethylates lysine 9 of histone H3. […] Consistent with our model, we find that genes involved in cell-cell adhesion (a strong marker for epithelial cells) display a specific loss of H3K9me3 in response to chaetocin treatment (Table 6). We also find that genes involved in neural differentiation also lose H3K9me3. […] Moreover, 60 genes display a simultaneous loss of H3K9me3 and an increase in their expression in chaetocin-treated cells (Table 7).

For assay [3], the system named is MDA-MB-468 cells. Briefly: Cleaved caspase 3 apoptosis assay. The format is cell-based, human. As to conditions: chaetocin 0, 400, 800 nM; compared with MDA-MB-231. The source says: FIGS. 1A-1K are a series of figures showing sensitivity of tumor initiating cell (TICs)-rich, chemoresistant breast cancer and clear cell renal cell carcinoma cell lines to chaetocin compared to non-cancerous epithelial or isogenic cancerous epithelial, TIC-deplete, chemosensitive breast cancer and clear cell renal cell carcinoma cell lines. […] The data presented in FIGS. 1A and 1B indicate that at lower doses especially chaetocin specifically induces apoptosis of mesenchymal, TIC-rich, chemotherapy-resistant breast cancer cell lines compared to the epithelial, non-TIC-rich and chemotherapy-responsive cell-line.
To determine whether constitutive heterochromatin proteins are similarly required for the development of […] in cancer, the efficacy of a heterochromatin inhibitor, which selectively represses the activities of two proteins critical for constitutive heterochromatin formation, namely suppressor of variegation 3-9 homolog 1 (Suv39H1) and suppressor of variegation 3-9 homolog 2 (Suv39H2), was tested in human cells, using 2-D, spheroid and tumorsphere assays. To determine the sensitivity of well-established mesenchymal and epithelial cancer cells to a heterochromatin inhibitor, chaetocin, the degree of apoptotic cell death was measured in two cancer cell lines, MDA-MB-231 and MDA-MB-468. […]

Assay [4] relates to HMLE-SNAIL cells. Briefly: CD44/CD24 FACS analysis. The format is cell-based, human. As to conditions: 1 μM for two days. An excerpt:
The y- and the x-axes represent fluorescence intensity of CD24 and CD44 cell surface markers, respectively. In this cell line, high CD44 and low CD24 expression indicate TIC cell populations. Cells that express CD24 are considered non-TICs.
Cell surface markers can be used to identify mesenchymal, TIC cells. In breast cancer, the presence of CD44 and absence of CD24 markers are indicators of TICs. Specifically, cells expressing high levels of CD44 and no expression of CD24 are considered TICs, whereas cells expressing CD24 are considered non-TICs. HMLE cells display these cell surface markers upon overexpression of SNAIL or TWIST, which turns on the EMT transcriptional program and promotes a mesenchymal TIC state in cancer cells. To determine whether chaetocin treatment alters the mesenchymal phenotype of TICs, these markers were used to track the fate of HMLE-SNAIL cells following chaetocin treatment (1 μM) using fluorescence-activated cell sorting (FACS) analysis. FIGS. 3A-3B show a heat map plot of FACS results under control conditions (FIG. 3A) and following chaetocin treatment (FIG. 3B). The y-axis corresponds to CD24 fluorescence intensity and the x-axis corresponds to CD44 fluorescence intensity.

The test system of assay [5] is HMLE-TWIST cells. As to conditions: 20, 50, 100 nM for 5 or 15 hours, two days chaetocin-free, then doxorubicin. The protocol: Doxorubicin was added after two days and cell death was assayed with cleaved caspase-3 intensity.
To determine if EMT reversal with chaetocin can sensitize TIC-rich breast cancer cells, namely HMLE-TWIST cells, to conventional chemotherapeutic agents, cells were treated for 5 or 15 hours with different concentrations of chaetocin (20 nM, 50 nM, and 100 nM), as is schematized in FIG. 4A. Cells were then washed and incubated in chaetocin-free media for two days. Doxorubicin was then added, and cell death was assayed using FACS analysis of caspase-3 cleavage two days after doxorubicin addition.

The test system of assay [6] is TICs (cancer stem/progenitor cells). Nature of the assay: Tumorsphere assay. As to conditions: 0, 30, 80 nM; 14 days of culture. The format is cell-based. An excerpt: FIGS. 1F-1I show the results of a 3-D tumor spheroid assay formed by the chemotherapy-resistant breast cancer cell line, HMLE-SNAIL. […] Tumor spheroids are a model of real in vivo tumors, as they form a 3-D cell mass in which the hypoxic and often nutrient depleted microenvironment at the center of the tumor is enriched with mesenchymal, chemotherapy-resistant TIC cells. […] By staining spheroids with Sytox, which stains dead cells green, and DAPI, which stains the nuclei of all cells (living or dead), total fraction of dead cells is calculated. Also, the location of dead cells within the sphere is visualized with Sytox (green) staining. The results of FIGS. 1F-1I indicate that chaetocin a selective and potent killer of inner cells of the spheroids, enriched with mesenchymal, chemotherapy-resistant TIC cells, compared to other compounds tested. FIGS. 1J-1K show the results of a tumorsphere assay performed with TICs grown on serum-free, non-adherent culture conditions. […] The results of FIGS. 1J-1K indicate that chaetocin is effective in eliminating TICs in a dose dependent-manner.
To further determine the effect of chaetocin on eliminating TICs, a tumorsphere assay was performed on cancer cells under increasing concentrations of chaetocin. A tumorsphere is a solid spherical formation developed from the proliferation of one cancer stem/progenitor cell. […]

Setting [7] is: 0.3 uM for 15 hours, Gene Ontology Biological Process.

As for `CN1C(=O)[C@@]23C[C@]4([C@]56C[C@@]78SS[C@](CO)(C(=O)N7[C@H]5Nc5ccccc56)N(C)C8=O)c5ccccc5N[C@@H]4N2C(=O)[C@@]1(CO)SS3` [chaetocin], the “E-cadherin level (mesenchymal to epithelial conversion)” value in assay [1] is reported as “stable epigenetic change in cell phenotype converting mesenchymal cancer cells into epithelial ones”. For the same molecule, in assay [2] (0.3 μM for 15 hours versus untreated), the “change in H3K9me3 profile” value was “specific loss of H3K9me3 over epithelial genes”. The “number of genes with simultaneous loss of H3K9me3 and increase in expression” value in assay [2] (0.3 μM for 15 hours, ChIP-seq with RNA-seq) was determined as 60 genes. Besides, in assay [2] (setting [7]), the “Fold Enrichment of cell-cell adhesion among genes which lose H3K9me3” value came to 2.49 and the “Fold Enrichment of neuron differentiation among genes which lose H3K9me3” value is 2.12. In assay [3], the “apoptosis (cleaved caspase 3) sensitivity” value was “increased sensitivity to chaetocin as compared to MDA-MB-231 cells”. For the same molecule, the “CD44/CD24 phenotype (TIC to non-TIC)” value in assay [4] is given as “reprograms TICs into a non-TIC phenotype”. Also, the “reversal of resistance to doxorubicin (caspase-3 cleavage)” value in assay [5] is listed as “reverses chemotherapy resistance of mesenchymal, TIC-rich HMLE-TWIST cells to doxorubicin”. For the same molecule, in assay [6], the “number of tumorspheres per well” value is recorded as “can eliminate TICs at low doses”.

Source of the values: patent US12396996B2, “Compounds, pharmaceutical compositions, and methods of their use in reversing cancer chemoresistance” (priority 2019, dated 2025).
